Literature values, collected in patent US12167995B2, “[((1R,2S,5R)-2-isopropyl-5-methyl-cyclohexanecarbonyl)-amino]-acetic acid isopropyl ester for treatment of chronic cough” (AXALBION SA, priority 2019, dated 2024).
“Also recorded” adds a separate entry of the source. Where two headings read alike, the source gives them in different places.

Tests used:
[1] = system: refractory chronic cough (RCC); settings: cited from earlier work
[2] = system: acute cough induced by capsaicin; settings: MK-7264: in RCC patients or in healthy subjects; cited from earlier work
[3] = system: isolated guinea pig vagal nerves; settings: Maher et al., 2014; cited from earlier work

Row | Structure (SMILES) | patients with adverse events related to taste (dysgeusia, hypogeusia, or ageusia) ([1]; 50 mg per day) [%] | patients with adverse events related to taste (dysgeusia, hypogeusia, or ageusia) ([1]; 1200 mg per day) [%] | effect on VAS scores in RCC patients ([1]; human, in vivo) | effect on cough frequency in RCC patients ([1]; human, in vivo) | effect on acute cough induced by capsaicin [2] | TRPM8 dependence of inhibition of capsaicin-induced response [3]
1 | COc1cc(C(C)C)c(Oc2cnc(N)nc2N)cc1S(N)(=O)=O [MK-7264] | 81 | 100 | poorly effective in improving the VAS scores | efficient in reducing cough frequency; also recorded: efficient in decreasing cough frequency in RCC patients | not effective for acute cough induced by the tussive stimulus capsaicin | –
2 | O=C(Nc1ccccc1Br)N[C@@H]1CCN(c2ccc(C(F)(F)F)cn2)C1 [SB-705498] | – | – | – | do not reduce cough frequency in RCC patients | inhibit acute cough induced by capsaicin | –
3 | CC(C)[C@@H]1CC[C@@H](C)C[C@H]1O [menthol, (1R,2S,5R)-2-isopropyl-5-methyl-cyclohexanol] | – | – | – | – | – | in a TRPM8-independent way
